Experimental data taken from PubChem BioAssay (NCI).
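Five compound concentrations were applied to cells in 96-well plates for 48 hours; endpoints were derived by simple linear interpolation of the resulting dose-response curve. TGI: total growth inhibition.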

What was measured:
Test in all cases: inhibition of tumour cell growth, NCI panel, 48 h
786-0 renal = test system: 786-0 renal
A498 renal = test system: A498 renal
ACHN renal = test system: ACHN renal
CAKI-1 renal = test system: CAKI-1 renal
COLO 205 colon = test system: COLO 205 colon
HCT-15 colon = test system: HCT-15 colon
HOP-92 NSCLC = test system: HOP-92 NSCLC
HS 578T breast = test system: HS 578T breast
M14 melanoma = test system: M14 melanoma
MALME-3M melanoma = test system: MALME-3M melanoma
NCI-H226 lung = test system: NCI-H226 lung
NCI-H460 lung = test system: NCI-H460 lung
NCI-H522 lung = test system: NCI-H522 lung
OVCAR-8 ovarian = test system: OVCAR-8 ovarian
RXF 393 renal = test system: RXF 393 renal
SF-268 CNS = test system: SF-268 CNS
SF-539 CNS = test system: SF-539 CNS
SK-MEL-2 melanoma = test system: SK-MEL-2 melanoma
U251 CNS = test system: U251 CNS

In the case of O=C(O)c1nc(-c2ccccn2)c(-c2ccccn2)nc1C(=O)O, the TGI (786-0 renal) is reported as 13.2 µM, the TGI (A498 renal) is reported as 4.12 µM and the TGI (ACHN renal) is reported as 7.35 µM. The TGI (CAKI-1 renal) was 8.5 µM, the TGI (COLO 205 colon) was 7.75 µM and the TGI (HCT-15 colon) was greater than 42.5 µM. It also gave a TGI (HOP-92 NSCLC) of 26.9 µM, a TGI (HS 578T breast) greater than 72.6 µM and a TGI (M14 melanoma) of 3.59 µM. It also gave a TGI (MALME-3M melanoma) of 7.85 µM, a TGI (NCI-H226 lung) of 4.7 µM and a TGI (NCI-H460 lung) of 4.85 µM. The TGI (NCI-H522 lung) was 23.2 µM, the TGI (OVCAR-8 ovarian) was 21.2 µM and the TGI (RXF 393 renal) was 9.71 µM. The TGI (SF-268 CNS) was 24.1 µM, the TGI (SF-539 CNS) was 20.6 µM and the TGI (SK-MEL-2 melanoma) was 29.9 µM. It also gave a TGI (U251 CNS) of 13.3 µM.

With CN1CCOC1(C)CO (centres undefined) the TGI (786-0 renal) was greater than 100 µM, the TGI (A498 renal) was greater than 100 µM and the TGI (ACHN renal) was greater than 100 µM. It also gave a TGI (CAKI-1 renal) greater than 100 µM, a TGI (COLO 205 colon) greater than 100 µM and a TGI (HCT-15 colon) greater than 100 µM. The TGI (HOP-92 NSCLC) was greater than 100 µM, the TGI (HS 578T breast) was greater than 100 µM and the TGI (M14 melanoma) was greater than 100 µM. The TGI (MALME-3M melanoma) was greater than 100 µM, the TGI (NCI-H226 lung) was greater than 100 µM and the TGI (NCI-H460 lung) was greater than 100 µM. For the same molecule, the TGI (NCI-H522 lung) was greater than 100 µM, the TGI (OVCAR-8 ovarian) was greater than 100 µM and the TGI (RXF 393 renal) was greater than 100 µM. For the same molecule, the TGI (SF-268 CNS) was greater than 100 µM, the TGI (SF-539 CNS) was greater than 100 µM and the TGI (SK-MEL-2 melanoma) was greater than 100 µM. The TGI (U251 CNS) was greater than 100 µM.

Cc1ccc(S(=O)(=O)C2=Cc3ccc(C(F)(F)F)cc3C2(O)c2cccc(C(F)(F)F)c2)cc1 (centres undefined) gave a TGI (786-0 renal) of 3.96 µM, a TGI (A498 renal) of 3.83 µM and a TGI (ACHN renal) of 7.64 µM. The TGI (CAKI-1 renal) was 14.6 µM, the TGI (COLO 205 colon) was 3.43 µM and the TGI (HCT-15 colon) was 4.27 µM. The TGI (HOP-92 NSCLC) was 4.17 µM, the TGI (HS 578T breast) was greater than 27.2 µM and the TGI (M14 melanoma) was 4.83 µM. For the same molecule, the TGI (MALME-3M melanoma) was 3.48 µM, the TGI (NCI-H226 lung) was 4.26 µM and the TGI (NCI-H460 lung) was 6.9 µM. The TGI (NCI-H522 lung) was 3.84 µM, the TGI (OVCAR-8 ovarian) was 4.44 µM and the TGI (RXF 393 renal) was 6.26 µM. The TGI (SF-268 CNS) was 8.65 µM, the TGI (SF-539 CNS) was 3.84 µM and the TGI (SK-MEL-2 melanoma) was 3.57 µM. For the same molecule, the TGI (U251 CNS) was 3.6 µM.

Work on C#CCn1ncc2c(SCc3ccccc3)ncnc21 yielded a TGI (786-0 renal) greater than 100 µM, a TGI (A498 renal) greater than 100 µM and a TGI (ACHN renal) greater than 100 µM. It also gave a TGI (CAKI-1 renal) greater than 100 µM, a TGI (COLO 205 colon) greater than 100 µM and a TGI (HCT-15 colon) greater than 100 µM. It also gave a TGI (HOP-92 NSCLC) greater than 100 µM, a TGI (HS 578T breast) greater than 100 µM and a TGI (M14 melanoma) greater than 100 µM. The TGI (MALME-3M melanoma) was greater than 100 µM, the TGI (NCI-H226 lung) was greater than 100 µM and the TGI (NCI-H460 lung) was greater than 100 µM. It also gave a TGI (NCI-H522 lung) greater than 100 µM, a TGI (OVCAR-8 ovarian) greater than 100 µM and a TGI (RXF 393 renal) greater than 100 µM. The TGI (SF-268 CNS) was greater than 100 µM, the TGI (SF-539 CNS) was greater than 100 µM and the TGI (SK-MEL-2 melanoma) was greater than 100 µM. It also gave a TGI (U251 CNS) greater than 100 µM.

Molecule O=C1/C(=C\c2ccc([N+](=O)[O-])o2)SC2N=C(COc3ccc(Cl)cc3)NN12 (centres undefined) has a TGI (786-0 renal) of 13.7 µM, a TGI (A498 renal) of 44.3 µM and a TGI (ACHN renal) of 3.67 µM. The TGI (CAKI-1 renal) was 32.9 µM, the TGI (COLO 205 colon) was 13.3 µM and the TGI (HCT-15 colon) was 4.77 µM. It also gave a TGI (HOP-92 NSCLC) of 4.49 µM, a TGI (HS 578T breast) greater than 100 µM and a TGI (M14 melanoma) of 13.2 µM. It also gave a TGI (MALME-3M melanoma) of 6.07 µM, a TGI (NCI-H226 lung) of 41.3 µM and a TGI (NCI-H460 lung) of 39.5 µM. For the same molecule, the TGI (NCI-H522 lung) was 4.81 µM, the TGI (OVCAR-8 ovarian) was 10.2 µM and the TGI (RXF 393 renal) was 31.6 µM. It also gave a TGI (SF-268 CNS) of 13.6 µM, a TGI (SF-539 CNS) of 15.5 µM and a TGI (SK-MEL-2 melanoma) of 37.2 µM. It also gave a TGI (U251 CNS) of 34.7 µM.

Work on COC(CN(C(=O)c1ccccc1)C1CCC2(SCCS2)c2[nH]c3ccccc3c21)OC (centres undefined) yielded a TGI (786-0 renal) greater than 100 µM, a TGI (A498 renal) greater than 100 µM and a TGI (ACHN renal) greater than 100 µM. It also gave a TGI (CAKI-1 renal) greater than 100 µM, a TGI (COLO 205 colon) of 59.3 µM and a TGI (HCT-15 colon) greater than 100 µM. It also gave a TGI (HOP-92 NSCLC) greater than 100 µM, a TGI (HS 578T breast) greater than 100 µM and a TGI (M14 melanoma) greater than 100 µM. It also gave a TGI (MALME-3M melanoma) greater than 100 µM, a TGI (NCI-H226 lung) greater than 100 µM and a TGI (NCI-H460 lung) greater than 100 µM. For the same molecule, the TGI (NCI-H522 lung) was 65.4 µM, the TGI (OVCAR-8 ovarian) was greater than 100 µM and the TGI (RXF 393 renal) was greater than 100 µM. The TGI (SF-268 CNS) was greater than 100 µM, the TGI (SF-539 CNS) was greater than 100 µM and the TGI (SK-MEL-2 melanoma) was greater than 100 µM. For the same molecule, the TGI (U251 CNS) was greater than 100 µM.
